IC50 data for 2 molecules are collected here from patent US20160137990A1, “CRYSTAL STRUCTURE OF BLOOD COAGULATION FACTOR XIIIA” (ZEDIRA GMBH, priority 2012, published 2016).

As usually defined, the IC50 is the concentration needed to halve the response being measured.

In this assay the target is T1, Factor XIIIa (Homo sapiens, UniProt P00488).
T1 construct: purchased Zedira T027 or T007
T1 sequence (P00488 39-732 limits assumed): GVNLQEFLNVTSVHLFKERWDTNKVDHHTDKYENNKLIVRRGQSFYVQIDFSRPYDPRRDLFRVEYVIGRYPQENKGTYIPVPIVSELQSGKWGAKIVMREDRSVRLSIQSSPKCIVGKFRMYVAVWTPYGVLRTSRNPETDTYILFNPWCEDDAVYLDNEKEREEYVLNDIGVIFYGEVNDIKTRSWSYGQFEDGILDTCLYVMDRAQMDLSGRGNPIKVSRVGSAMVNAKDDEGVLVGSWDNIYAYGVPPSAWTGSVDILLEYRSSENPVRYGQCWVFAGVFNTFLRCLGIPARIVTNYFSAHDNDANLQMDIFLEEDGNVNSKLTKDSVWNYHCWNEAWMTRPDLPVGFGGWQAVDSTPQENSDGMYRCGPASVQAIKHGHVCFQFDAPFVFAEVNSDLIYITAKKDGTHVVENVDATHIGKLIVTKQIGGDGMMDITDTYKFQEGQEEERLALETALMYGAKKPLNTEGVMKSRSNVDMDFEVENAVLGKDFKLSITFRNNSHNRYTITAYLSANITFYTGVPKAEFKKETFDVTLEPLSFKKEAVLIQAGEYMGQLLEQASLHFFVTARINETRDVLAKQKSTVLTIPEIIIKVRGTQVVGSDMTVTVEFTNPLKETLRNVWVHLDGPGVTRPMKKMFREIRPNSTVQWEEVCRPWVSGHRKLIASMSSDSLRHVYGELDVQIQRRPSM
The assay can be described thus: Fluorogenic assay kit F001 (Zedira), isopeptidase activity of FXIIIa. The format is biochemical. The settings on record: FXIIIa after activation by thrombin; fluorescence ex 313 nm / em 418 nm. Here is the method: Kinetic data of the inhibitor 1 (compound 4) and inhibitor 2 (compound 7) using the commercial fluorogenic assay kit F001 (Zedira) show an IC50 of about 0.11 and 0.08 μM respectively. The fluorogenic assay kit F001 (Zedira) is ready to use. Briefly, recombinant factor XIII (Zedira, product number T027) or human blood derived factor XIII (T007) is reconstituted in water. The enzymatic activity is measured in a suitable buffer (e.g. TRIS buffer pH 7.5 containing calcium chloride, sodium chloride, poly ethylene glycol (PEG), glycine methyl ester, clot inhibitor peptide GPRP-amide) after activation by thrombin. Factor XIIIa cleaves a dark quenching molecule from the side chain of the modified peptide incorporating glycine methyl ester (so called iso-peptidase activity). Subsequently, the fluorescence of an N-terminal coupled dye increases and can be monitored on-line (excitation wavelength 313 nm; emission wavelength 418 nm). The inhibitor of interest can be added after the activation of Factor XIII by thrombin is completed. The IC50 value represents the inhibitor concentration leading to a 50% inhibition of FXIIIa activity.

Where a name gives a salt, the structure may show the parent alone. Starred links: 1 amine or outer side, 2 acyl side, 3 side chain; linkers in the order of their positions; H or OH if unused. Non-standard residues stand in square brackets, D forms with d. Residues, ends and D or L forms follow the SMILES beside them. ξ: configuration not given here. X1 = COC(=O)/C=C/CC[C@H](N[*:1])C(=O)[*:2]; Pro(4-oxo) = O=C1CN[C@H](C(=O)O)C1; Ile(3ξ) = CCC(C)[C@H](N)C(=O)O; Nle = CCCC[C@H](N)C(=O)O

Turning to `CCCC[C@H](NC(=O)[C@H](CC/C=C/C(=O)OC)NC(=O)[C@@H]1CC(=O)CN1)C(=O)N[C@H](C(=O)N[C@@H](CC(C)C)C(=O)N1CCC[C@H]1C(=O)N[C@@H](Cc1c[nH]c2ccccc12)C(=O)N1CCC[C@H]1C(=O)O)C(C)CC` (stereo partly drawn) [compound 7, (S)-1-((S)-2-((S)-1-((8S,11S,14S,17S,E)-14-sec-butyl-11-butyl-17-isobutyl-3,9,12,15-tetraoxo-8-((S)-4-oxopyrrolidine-2-carboxamido)-2-oxa-10,13,16-triazaoctadec-4-ene)pyrrolidine-2-carboxamido)-3-(1H-indol-3-yl)propanoyl)pyrrolidine-2-carboxylic acid trifluoroacetate] (H-[Pro(4-oxo)][X1][Nle][Ile(3ξ)]LPWP-OH), the IC50 is about 0.08 µM.
`CCCC[C@H](NC(=O)[C@H](CC/C=C/C(=O)OC)NC(=O)[C@@H](CC(=O)O)NC(C)=O)C(=O)N[C@@H](CCCC)C(=O)N[C@@H](CC(C)C)C(=O)N1CCC[C@H]1C(=O)N[C@@H](Cc1c[nH]c2ccccc12)C(=O)N1CCC[C@H]1C(=O)O` [compound 4, (S)-1-((S)-2-((S)-1-((4R,7S,10S,13S,16S)-10,13-dibutyl-4-(carboxymethyl)-7-((E)-5-methoxy-5-oxopent-3-enyl)-18-methyl-2,5,8,11,14-pentaoxo-3,6,9,12,15-pentaazanonadecanecarbonyl)pyrrolidine-2-carboxamido)-3-(1H-indol-3-yl)propanoyl)pyrrolidine-2-carboxylic acid] (Ac-[dD][X1][Nle][Nle]LPWP-OH): the IC50 was about 0.11 µM.
